Data set [1] can be described thus: water absorption (sorption isotherm) at 25° C. and 90% r.h. It counts as physicochemical. As for the experimental part: Thus, the pure active substance absorbs less than 0.1% of water at 25° C. at 90% r.h., as indicated by the sorption isotherm shown in FIG. 1. […] The topiramate according to the invention is therefore particularly suitable for the preparation of pharmaceutical formulations. The tablet formulations according to the invention which are obtainable by direct compression absorb less moisture than commercially available tablets. […] In contrast, topiramate tablets according to the invention, as in example 1 below, absorb only 5.5% of water under the same conditions.

Data set [2] can be described thus: storage at 80° C. for one month, color changes. The data set is classed as physicochemical.

As for `CC1(C)O[C@@H]2[C@@H](CO[C@@]3(COS(N)(=O)=O)OC(C)(C)O[C@@H]23)O1` [topiramate, 2,3:4,5-bis-O-(1-methylethylidene)-β-D-fructopyranose sulfamate], in data set [1], the water absorbed entry is “less than 0.1%”. In addition, the “color changes on storage” value in data set [2] was “no color changes”.

These data come from US20070087976A1, “Topiramate and pharmaceutical formulations thereof” (priority 2005, published 2007).
